Reference: patent US4732984A, “Piperazinoisothiazolones with psychotropic activity” (priority 1986, dated 1988)
Where a name gives a salt, the structure may show the parent alone.

How the values were obtained:
[1] = target: limbic D-2 dopamine receptor (Rattus norvegicus, UniProt P61169); assay: biochemical; format: binding, rats; conditions: for Ki: rat limbic tissue, 0.3 nM 3H-spiroperidol, 37° C., 10 min, read-out: Limbic D-2 Binding (Ki nM)
Description: The compounds of the invention are further studied for their ability to inhibit limbic D-2 dopamine receptor binding. This in vitro assay measures the ability of the compounds tested to bind to the dopamine receptor sites.
Several rats are decapitated and the brains are rapidly removed. Limbic brain tissue (nucleus accumbens, septal area, olfactory tubercle) is dissected and homogenized on ice in 9 volumes of buffer (50 mM Tris-HCl, 120 mM NaCl, 5 mM KCl, 1 mM CaCl2, 1 mM MgCl2, 0.1% L-ascorbic acid, 10 μM pargyline HCl, pH 7.1) using a Polytron homogenizer at setting 5 for three 15-sec bursts. The homogenate is then diluted 4-fold with buffer and centrifuged at 30,000×g for 20 min, and the supernatant is discarded. The pellet is resuspended in the same volume of buffer and recentrifuged as before, again discarding the supernatant. This pellet is then resuspended in the same volume of buffer used in the homogenization, and the protein content of this preparation is assyed by the Lowry method. The homogenate is stored frozen at -70° C. until use.
Thirty μL of the homogenate (0.02-0.3 mg protein/sample) are incubated with 0.3 nM ^3 H-spiroperidol (New England Nuclear) and various concentrations of test drug in a final volume of 1 ml of the above buffer for 10 min in a 37° C. water bath. At the end of the incubation, 3 ml of cold 50 mM Tris-HCl, pH 7.7, are added to each tube, and the contents are rapidly vacuum-filtered through Whatman GF/B glass-fiber filters. The filters are then rapidly washed 3 times with 3 ml of the same buffer, placed in scintillation vials, and shaken for 15 min with 10 ml of Hydrofluor (National Diagnostics) scintillation cocktail. The vials are then counted in a Packard 460CD scintillation counter.
Specific binding is defined as total binding less binding in the presence of 1 μM (+)butaclamol. Binding in the presence of various concentrations of test drug is expressed as a per cent of specific binding when no drug is present.

[2] = Conditioned avoidance (discrete trial) test; format: in vivo, Male CD rats; conditions: for ED50: Rattus norvegicus; for Activity at 40 mg/kg: 40 mg/kg perorally administered
Description: The antipsychotic activity of the compounds of the invention is assessed via the conditioned avoidance (discrete trial) test. This test has excellent clinical correlation for antipsychotic activity.
Male CD rats (Charles River) maintained at approximately 400-450 gm body weight are used. Rats trained previously are placed in plexiglass experimental chambers equipped with a response lever, house light, and sonalert. A steel grid floor is wired for presentation of electric shock. Each trial consists of a fifteen-second warning tone (conditioned stimulus), continuing for an additional fifteen seconds accompanied by electric shock, (unconditioned stimulus). The rat can terminate a trial at any point by depression of the response lever. A response during the initial fifteen-second warning tone ends the trial before shock delivery and is considered an avoidance response, while a response occurring during shock delivery is an escape response. Trials are presented on a variable interval schedule of two minutes. The session consists of sixty trials. Animals are run two to three times weekly with control sessions always preceding a drug run, and with at least one day intervening, compounds are administered i.p. or p.o. at appropriate pre-treatment times to a minimum of five to six rats at each dose level over a range of doses.
The following experimental parameters are recorded by computer: (1) the number of intertrial interval responses, (2) the number of avoidance responses, (3) the number of escape responses, and (4) the number of trials in which no response occurred.
Response counts are summed over all subjects at a given dose. […] This number is expressed as a percentage of the total trials. Control performance is arbitrarily assigned a value of 100% for avoidance and the dose calculated to produce a 50% block in avoidance responding (AB50 ) is obtained from a dose-effect regression line fitted by the method of least squares. Potential antipsychotic compounds suppress avoidance responding and increase escape responding.

[3] = Conditioned avoidance (shelf-jump response) test; format: in vivo, Male CD rats; conditions: Rattus norvegicus, ip, rats, read-out: AB50 (standard compounds)
Text: Another test designed to determine the potential antipsychotic activity of the compounds of the invention is the conditioned avoidance (shelf-jump response) test.
Male CD rats (Charles River) maintained at approximately 400-450 gm body weight are used. […] A moveable wall, controlled by a motor, determines whether the rat has access to the shelf at any time during the experiment. The experimental chamber also contains a house light and sonalert. A steel grid floor in the main chamber is wired for presentation of electric shock. Each trial consists of a fifteen-second warning tone (conditioned stimulus), continuing for an additional fifteen seconds accompanied by electric shock (unconditioned stimulus). A response (jumping onto the exposed shelf of the upper chamber) occurring during the initial fifteen-second warning tone is considered an avoidance response, while a response occurring during shock delivery is considered an escape response. Trials are presented on a fixed interval schedule of one minute. The session consists of thirty-six trials. […]
The following experimental parameters are recorded by computer: (1) the number of avoidance responses, (2) the number of escape responses, and (3) the number of trials in which no response occurred.
Response counts are summed over all subjects at a given dose. […] This number is expressed as a percentage of the total trials. […]

dopamine receptor = conditions: mice; 10 mg/kg s.c. apomorphine
[4] = po, perorally administered, discrete trial, rats, read-out: AB50 (the source's name)

Sequence of limbic D-2 dopamine receptor (P61169 whole entry): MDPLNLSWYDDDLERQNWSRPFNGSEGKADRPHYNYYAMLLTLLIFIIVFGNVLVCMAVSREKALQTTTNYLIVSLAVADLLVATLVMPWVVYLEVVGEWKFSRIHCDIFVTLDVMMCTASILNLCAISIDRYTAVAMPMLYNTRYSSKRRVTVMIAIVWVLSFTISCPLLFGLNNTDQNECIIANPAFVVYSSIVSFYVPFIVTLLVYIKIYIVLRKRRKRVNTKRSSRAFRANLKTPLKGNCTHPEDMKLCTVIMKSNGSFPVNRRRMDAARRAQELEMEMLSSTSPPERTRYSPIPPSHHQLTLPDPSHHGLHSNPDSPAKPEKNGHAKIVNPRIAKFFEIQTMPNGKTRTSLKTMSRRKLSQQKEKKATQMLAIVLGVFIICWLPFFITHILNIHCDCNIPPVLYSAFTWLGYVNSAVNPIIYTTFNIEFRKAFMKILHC

| SMILES | ED50 [2, 4] [mg/kg] | Activity at 40 mg/kg [2] | Ki [1] [nM] | further results |
| --- | --- | --- | --- | --- |
| O=C1[C@@H]2[C@@H]([C@H]3CC[C@@H]2O3)S(=O)(=O)N1CCCCN1CCN(c2cncc(Cl)n2)CC1 (relative stereo) [Example 8, 3aα,4β,7β,7aα-hexahydro-2-[4-[4-(6-chloro-2-pyrazinyl)-1-piperazinyl]butyl]-4,7-epoxy-1,2-benzisothiazol-3(2H)-one 1,1-dioxide, hydrochloride] | 34.3 | – | – | inhibition at 10 µM ([1]; read-out: Limbic D-2 Binding, % inhibition at 10 μM): 36% |
| O=C1[C@H]2[C@H]([C@@H]3CC[C@H]2O3)S(=O)(=O)N1CCCCN1CCN(c2cnccn2)CC1 (relative stereo) [Example 19, (3aα,4β,7β,7aα)-Hexahydro-2-[4-[4-(2-pyrazinyl)-1-piperazinyl]butyl]-4,7-epoxy-1,2-benzisothiazol-3(2H)-one 1,1-dioxide, dihydrochloride, hemihydrate] | 47.9 | – | – | – |
| O=C1[C@@H]2[C@@H]([C@@H]3CC[C@H]2O3)S(=O)(=O)N1CCCCN1CCN(c2cncc(Cl)n2)CC1 (relative stereo) [Example 20, (3aα,4α,7α,7aα)-2-[4-[4-(6-Chloro-2-pyrazinyl)-1-piperazinyl]butyl]hexahydro-4,7-epoxy-1,2-benzisothiazol-3(2H)-one 1,1-dioxide, hydrochloride] | – | showed activity | – | – |
| O=C1CC2(CCCC2)CC(=O)N1CCCCN1CCN(c2ncccn2)CC1 [Buspirone, 8-[4-[4-(2-pyrimidinyl)-1-piperazinyl]butyl]-8-azaspiro[4.5]decane-7,9-dione] | 32 | – | – | ED50 [3]: 9.44 mg/kg; Activity in apomorphine-induced stereotyped behavior assay (dopamine receptor): inactive |
| O=C1C2C3C=CC(C3)C2S(=O)(=O)N1CCCCN1CCN(c2ncccn2)CC1 (stereo not drawn) [Example 1, 3a,4,7,7a-Tetrahydro-2-[4-[4-(2-pyrimidinyl)-1-piperazinyl]butyl]-4,7-methano-1,2-benzisothiazol-3(2H)-one 1,1-dioxide, dihydrochloride, hemihydrate] | 45.4 | – | 1100 | – |
| O=C1C2C3C=CC(CC3)C2S(=O)(=O)N1CCCCN1CCN(c2ncccn2)CC1 (stereo not drawn) [Example 2, 3a,3,7,7a-Tetrahydro-2-[4-[4-(2-pyrimidinyl)-1-piperazinyl]butyl]-4,7-ethano-1,2-benzisothiazol-3(2H)-one 1,1-dioxide, dihydrochloride, hydrate] | – | – | 2000 | – |
| CC1=C(C)CC2C(C1)C(=O)N(CCCCN1CCN(c3ncccn3)CC1)S2(=O)=O (stereo not drawn) [Example 3, 3a,4,7,7a-Tetrahydro-5,6-dimethyl-2-[4-[4-(2-pyrimidinyl)-1-piperazinyl]butyl]-1,2-benzisothiazol-3(2H)-one 1,1-dioxide dihydrochloride] | – | – | – | inhibition at 1 µM ([1]; read-out: Limbic D-2 Binding, % inhibition at 1 μM): 21% |
| O=C1C2C3C=CC(C4CC34)C2S(=O)(=O)N1CCCCN1CCN(c2ncccn2)CC1 (stereo not drawn) [Example 6, 4,4a,5,5a,6,6a-hexahydro-2-[4-[4-(2-pyrimidinyl)-1-piperazinyl]butyl]-4,6-etheno-2H-cyclopropa[f][1,2]benzisothiazol-3(3aH)-one 1,1-dioxide,dihydrochloride] | – | – | 1410 | – |
| O=C1c2ccccc2S(=O)(=O)N1CCCCN1CCN(c2nccnc2Cl)CC1 [Example 11, 2-[4-[4-(3-Chloro-2-pyrazinyl)-piperazinyl]butyl]-1,2-benzisothiazol-3(2H)-one 1,1-dioxide, hydrochloride] | – | – | 493 | – |
| CC1=C(C)CC2C(C1)C(=O)N(CCCCN1CCN(c3nccnc3Cl)CC1)S2(=O)=O (stereo not drawn) [Example 13, 2-[4-[4-(3-Chloro-2-pyrazinyl)-1-piperazinyl]butyl]-3a,4,7,7a-tetrahydro-5,6-dimethyl-1,2-benzisothiazol-3(2H)-one 1,1-dioxide, hydrochloride, hydrate] | – | – | 507 | – |
| Cl.Cl.O=C1C2C3C=CC(C3)C2S(=O)(=O)N1CCCCN1CCN(c2cncc(Cl)n2)CC1 (stereo not drawn) [Example 14, 2-[4-[4-(6-Chloro-2-pyrazinyl)-1-piperazinyl]butyl]-3a,4,7,7a-tetrahydro-4,7-methano-1,2-benzisothiazol-3(2H)-one 1,1-dioxide, dihydrochloride] | 78.2 | – | – | – |
| O=C1C2C3CCC(C3)C2S(=O)(=O)N1CCCCN1CCN(c2ncccn2)CC1 (stereo not drawn) [Example 15, 2-[4-[4-(2-Pyrimidinyl)-1-piperazinyl]butyl]-3a,4,5,6,7,7a-hexahydro-4,7-methano-1,2-benzisothiazol-3(2H)-one 1,1-dioxide, dihydrochloride, hemihydrate] | – | showed activity | – | – |
| Cl.O=C1C2C3CCC(C3)C2S(=O)(=O)N1CCCCN1CCN(c2cncc(Cl)n2)CC1 (stereo not drawn) [Example 16, 2-[4-[4-(6-Chloro-2-pyrazinyl)-1-piperazinyl]butyl]-3a,4,5,6,7,7a-hexahydro-4,7-methano-1,2-benzisothiazol-3(2H)-one 1,1-dioxide, hydrochloride] | – | showed activity | – | – |
| O=C1C2C3CCC(C4CC43)C2S(=O)(=O)N1CCCCN1CCN(c2ncccn2)CC1 (stereo not drawn) [Example 17, Hexahydro-2-[4-[4-(2-pyrimidinyl)-1-piperazinyl]butyl-4,6-ethano-2H-cycloprop[f]-1,2-benzisothiazol-3(2H)-one 1,1-dioxide, hydrochloride] | – | showed activity | – | – |
| O=C1C2C3C=CC(C4CC34)C2S(=O)(=O)N1CCCCN1CCN(c2cncc(Cl)n2)CC1 (stereo not drawn) [Example 18, 2-[4-[4-(6-Chloro-2-pyrazinyl)-1-piperazinyl]butyl]-4,4a,5,5a,6,6a-hexahydro-4,6-etheno-2H-cycloprop[f]-1,2-benzisothiazol-3(2H)-one 1,1-dioxide, hydrochloride] | – | showed activity | 1030 | – |
| O=C1C2C3C=CC(C4C=CC43)C2S(=O)(=O)N1CCCCN1CCN(c2ncccn2)CC1 (stereo not drawn) [Example 21, 3a,4,4a,6a,7,7a-Hexahydro-2-[4-[4-(2-pyrimidinyl)-1-piperazinyl]butyl]-4,7-ethenocyclobut[f]-1,2-benzisothiazol-3(2H)-one 1,1-dioxide, dihydrochloride] | 39.4 | showed activity | – | – |
| O=C(CCCN1CCC(O)(c2ccc(Cl)cc2)CC1)c1ccc(F)cc1 [Haloperidol, reference compound] | – | – | – | AB50 (standard compounds) ([2]; i.p., discrete trial, rats): 0.18 mg/kg i.p. |
| O=C(CCCN1CCC2(CC1)C(=O)NCN2c1ccccc1)c1ccc(F)cc1 [Spiperone, reference compound] | – | – | – | ED50 ([2]; ip, discrete trial, rats, read-out: AB50 (standard compounds)): 0.13 mg/kg |
